Results: patent US20230243822A1, “MOLECULAR DISEASE PROFILE AND USE THEREOF FOR MONITORING AND TREATING RHEUMATAOID ARTHRITIS” (JANSSEN BIOTECH, INC., priority 2020, published 2023)

How the values were obtained:
14-analyte M-DP panel = assay: Pharmacodynamic M-DP score, 14-analyte panel (SomaLogic SOMAscan), clinical studies in RA; assay type: in vivo, human; conditions: for M-DP score mean difference ± SD, Good vs. No / M-DP score mean ± SD, DAS28-CRP response group Good / M-DP score mean ± SD, DAS28-CRP response group Moderate / M-DP score mean ± SD, DAS28-CRP response group No: response at week 24
Source text: (§1) Serum samples and data from eight interventional clinical studies with seven different active treatments for RA or placebo treatment were obtained and analyzed: sirukumab (anti-IL-6) and placebo treatments in SIRROUND-M (NCT01689532; Takeuchi T, et al. Arthritis Res Ther. 2018 Mar. 7; 20(1): 42), SIRROUND-D (NCT01604343; Takeuchi T, et al. Ann Rheum Dis. 2017 Dec.; 76(12): 2001-2008), and SIRROUND-T (NCT01606761; Aletaha D, et al. Lancet. 2017 Mar. 25; 389(10075): 1206-1217); sirukumab and adalimumab (anti-TNF-alpha) treatments in SIRROUND-H (NCT02019472; Taylor PC, et al. Ann Rheum Dis. 2018 May; 77(5): 658-666); golimumab (anti-TNF-alpha) treatment in GO-FURTHER (NCT00973479; Weinblatt ME, et al. Ann Rheum Dis. 2013 March; 72(3): 381-9); guselkumab (anti-IL-23p19), ustekinumab (anti-IL-12/IL-23p40), and placebo treatments in CNTO1275ARA2001 (NCT01645280; Cox JD, et al. […]); JNJ-40346527 (colony-stimulating factor-1 inhibitor) and placebo treatments in 40346527ARA2001 (NCT01597739; Genovese MC, et al. J Rheumatol. 2015 October; 42(10): 1752-60). Plasma samples were obtained from the RA-MAP TACERA study (Cope AP, et al. Nat Rev Rheumatol. 2018 January; 14(1): 53-60) before (baseline) and 6-months after initiation of conventional synthetic disease-modifying anti-rheumatic drugs (csDMARDs). Details of treatment dose groups, concomitant methotrexate use, and previous experience with csDMARDs and biologics are reported in Table 1. The studies were conducted in accordance with the Declaration of Helsinki. The study protocols were reviewed and approved by an independent ethics committee or institutional review board for each study center. Written informed consent was obtained from all patients before study entry. Additional study details and patient characteristics are available in the referenced publications for each study. For SIRROUND-D and SIRROUND-T studies, sets of serum samples from demographically-matched healthy controls were obtained from commercial sources (BioIVT, Westbury, N.Y.).
(§2) Serum samples from baseline (week 0) and the time points indicated in Table 1 were provided for quantification of 1189 serum analytes using the SomaScan v3.1 platform (SomaLogic, Boulder, Colo.; www.somalogic.com), with the exception of RA-MAP TACERA, for which plasma samples were analyzed for 1301 analytes using the SomaScan v3.2 platform. For some studies, a redacted dataset reporting data for a subset of the analytes was obtained. Relative fluorescence unit (RFU) data were sequentially normalized for hybridization controls (internal standards per samples), median signal across all samples (assumes same total protein concentration across sample set), and calibration controls (common sample standards across analysis plates). Samples failed quality control standards defined by Somalogic were excluded from analyses. The normalized RFU values were log2-transformed for subsequent analyses.
(§3) Changes in analyte expression levels were calculated for individual samples as the log2 transform of the ratio of the analyte level at the indicated time point (visit level) over the analyte level at baseline (baseline level) for a given subject, i.e., log 2(visit level/baseline level). Changes in RA disease-associated analytes per sample were summarized using a pharmacodynamic (PD) molecular disease profile (M-DP) score, defined as the median value of the log 2(visit level/baseline level) values for analytes in the defined M-DP analyte set. […] PD M-DP scores in the log 2(visit level/baseline level) scale can be transformed to percent change from baseline, using the transformation: (2^M-DP score−1)×100%.
Statistical analyses were performed on log2-transformed data, for either normalized Relative fluorescence unit (RFU) datasets or within-subject fold/baseline datasets. Significance of differences between groups was evaluated using General Linear Models, with t-tests when comparing two groups. […]

[1] = test system: 4-analyte M-DP panel (CRP, CXCL10, CXCL13, SAA); assay: Pharmacodynamic M-DP score, 4-analyte panel CRP, CXCL10, CXCL13, SAA (SOMAscan), clinical studies in RA; assay type: in vivo, human; conditions: for M-DP score mean ± SD, All treated / M-DP score mean difference ± SD, Good vs. No / M-DP score mean ± SD, DAS28-CRP response group Good / M-DP score mean ± SD, DAS28-CRP response group Moderate / M-DP score mean ± SD, DAS28-CRP response group No: 4-analyte; for M-DP score mean difference ± SD, Good vs. No / M-DP score mean ± SD, DAS28-CRP response group Good / M-DP score mean ± SD, DAS28-CRP response group Moderate / M-DP score mean ± SD, DAS28-CRP response group No: response at week 24
Source text: as §1, §2, §3
In selecting the best minimal set of analytes that performs similarly to the full 14-analyte set, analyte sets that results in significant associations between DAS28-CRP EULAR good vs. no response with p<0.05 for each study were prioritized (Table 4). […]

RA patients = conditions: cited from earlier work; for clinical efficacy in the underlying clinical studies: RA patients
[2] = test system: 4-analyte M-DP panel (CRP, SAA, CXCL10, CXCL13); assay: Pharmacodynamic 4-analyte M-DP score by MSD U-PLEX, CORRONA CERTAIN biorepository serum; assay type: in vivo, human; conditions: U-PLEX 4-analyte; for M-DP score GMean decrease: all treated
Procedure: PD M-DP scores for the 4-analyte panel were calculated based on these concentrations of CRP, SAA, CXCL10, and CXCL13.
These samples were not previously evaluated for the M-DP panel development or reduction.

[3] = GO-FURTHER, score at week 14, golimumab IV 2 mg/kg weeks 0, 4, then q8w plus methotrexate
[4] = GO-FURTHER, score at week 14, golimumab IV 2 mg/kg
[5] = CNTO1275ARA2001, score at week 4, ustekinumab SC 90 mg or guselkumab SC 50 or 200 mg
[6] = CNTO1275ARA2001, score at week 28, ustekinumab SC 90 mg or guselkumab SC 50 or 200 mg
[7] = CERTAIN Biorepository RA patients

golimumab [reference compound]
M-DP score decrease (14-analyte M-DP panel; GO-FURTHER, 14-weeks treatment, golimumab IV): 26% | M-DP score mean ± SD, All treated (14-analyte M-DP panel; [3]): −0.44 ± 0.37 log2 (fold/baseline) | M-DP score mean difference ± SD, Good vs. No (14-analyte M-DP panel; [4]): −0.35 ± 0.35 log2 (fold/baseline) | M-DP score mean ± SD, DAS28-CRP response group Good (14-analyte M-DP panel; [4]): −0.56 ± 0.39 log2 (fold/baseline) | M-DP score mean ± SD, DAS28-CRP response group Moderate (14-analyte M-DP panel; [4]): −0.45 ± 0.34 log2 (fold/baseline) | M-DP score mean ± SD, DAS28-CRP response group No (14-analyte M-DP panel; [4]): −0.21 ± 0.27 [22] * log2 (fold/baseline) | M-DP score mean ± SD, All treated [1, 3]: −0.94 ± 0.63 log2 (fold/baseline) | M-DP score mean difference ± SD, Good vs. No [1, 4]: −0.56 ± 0.55 (0.0003) log2 (fold/baseline) | M-DP score mean ± SD, DAS28-CRP response group Good [1, 4]: −1.13 ± 0.61 log2 (fold/baseline) | M-DP score mean ± SD, DAS28-CRP response group Moderate [1, 4]: −0.94 ± 0.68 log2 (fold/baseline) | M-DP score mean ± SD, DAS28-CRP response group No [1, 4]: −0.57 ± 0.43 log2 (fold/baseline) | M-DP score decrease, good response subgroup ([1]; golimumab treatment data): 54% | M-DP score decrease, no response subgroup ([1]; golimumab treatment data): 33% | clinical efficacy in the underlying clinical studies (RA patients): clinically efficacious

guselkumab [reference compound]
M-DP score mean ± SD, All treated (14-analyte M-DP panel; [5]): −0.01 ± 0.19 log2 (fold/baseline) | M-DP score mean difference ± SD, Good vs. No (14-analyte M-DP panel; [5]): 0.00 ± 0.19 log2 (fold/baseline) | M-DP score mean ± SD, DAS28-CRP response group Good (14-analyte M-DP panel; [5]): −0.04 ± 0.19 log2 (fold/baseline) | M-DP score mean ± SD, DAS28-CRP response group Moderate (14-analyte M-DP panel; [5]): 0.02 ± 0.20 log2 (fold/baseline) | M-DP score mean ± SD, DAS28-CRP response group No (14-analyte M-DP panel; [5]): −0.04 ± 0.19 [12] log2 (fold/baseline) | M-DP score mean ± SD, All treated (14-analyte M-DP panel; [6]): −0.03 ± 0.26 log2 (fold/baseline) | M-DP score mean difference ± SD, Good vs. No (14-analyte M-DP panel; [6]): −0.03 ± 0.21 log2 (fold/baseline) | M-DP score mean ± SD, DAS28-CRP response group Good (14-analyte M-DP panel; [6]): −0.08 ± 0.10 log2 (fold/baseline) | M-DP score mean ± SD, DAS28-CRP response group Moderate (14-analyte M-DP panel; [6]): 0.01 ± 0.34 log2 (fold/baseline) | M-DP score mean ± SD, DAS28-CRP response group No (14-analyte M-DP panel; [6]): −0.05 ± 0.25 [12] log2 (fold/baseline) | GMean M-DP scores, change (14-analyte M-DP panel; week 4 or latest time point evaluated (weeks 28, 28, and 12, respectively)): not decreased | M-DP score mean ± SD, All treated [1, 5]: −0.12 ± 0.39 log2 (fold/baseline) | M-DP score mean difference ± SD, Good vs. No [1, 5]: −0.11 ± 0.33 (0.4781) log2 (fold/baseline) | M-DP score mean ± SD, DAS28-CRP response group Good [1, 5]: −0.19 ± 0.30 log2 (fold/baseline) | M-DP score mean ± SD, DAS28-CRP response group Moderate [1, 5]: −0.11 ± 0.49 log2 (fold/baseline) | M-DP score mean ± SD, DAS28-CRP response group No [1, 5]: −0.08 ± 0.35 log2 (fold/baseline) | M-DP score mean ± SD, All treated [1, 6]: −0.07 ± 0.37 log2 (fold/baseline) | M-DP score mean difference ± SD, Good vs. No [1, 6]: −0.12 ± 0.38 (0.5645) log2 (fold/baseline) | M-DP score mean ± SD, DAS28-CRP response group Good [1, 6]: −0.12 ± 0.38 log2 (fold/baseline) | M-DP score mean ± SD, DAS28-CRP response group Moderate [1, 6]: −0.10 ± 0.39 log2 (fold/baseline) | M-DP score mean ± SD, DAS28-CRP response group No [1, 6]: −0.01 ± 0.38 log2 (fold/baseline) | clinical efficacy in the underlying clinical studies (RA patients): not clinically efficacious

rituximab
M-DP score GMean decrease ([2]; 3-months): 30% | M-DP score GMean decrease ([2]; 6-months): 36% | M-DP score mean ± SD, 6-month DAS28-CRP response group Good ([2]; score at month 3M): −0.44 ± 1.13 [7] log2 (fold/baseline) | M-DP score mean ± SD, 6-month DAS28-CRP response group Moderate ([2]; score at month 3M): −0.71 ± 1.62 [4] log2 (fold/baseline) | M-DP score mean ± SD, 6-month DAS28-CRP response group No ([2]; score at month 3M): −0.23 n.a. [1] log2 (fold/baseline) | M-DP score mean ± SD, All treated ([2]; score at month 3M): −0.51 ± 1.20 [12] log2 (fold/baseline) | M-DP score mean ± SD, 6-month DAS28-CRP response group Good ([2]; score at month 6M): −0.96 ± 0.79 [7]* log2 (fold/baseline) | M-DP score mean ± SD, 6-month DAS28-CRP response group Moderate ([2]; score at month 6M): −0.24 ± 1.23 [4] log2 (fold/baseline) | M-DP score mean ± SD, 6-month DAS28-CRP response group No ([2]; score at month 6M): −0.01 n.a. [1] log2 (fold/baseline) | M-DP score mean ± SD, All treated ([2]; score at month 6M): −0.64 ± 0.95 [12] * log2 (fold/baseline) | EULAR DAS28-CRP clinical response rate, good response (RA patients; [7]): 50% | EULAR DAS28-CRP clinical response rate, moderate response (RA patients; [7]): 32% | EULAR DAS28-CRP clinical response rate, no response (RA patients; [7]): 18%
